Legend:
5-LO [1] = molecular target: T1, 5-LO (Homo sapiens, UniProt P09917); experiment: Test a): in vitro heparinised human blood challenged with calcium ionophore A23187, radioimmunoassay of LTB₄; type: cell-based; settings: heparinised human blood, A23187 challenge; read-out: IC₅₀ against LTB₄ in test a)
T1 construct: incubating a test compound with heparinised human blood, prior to challenge with the calcium ionophore A23187; endogenous in cells; host or cells: human whole blood (blood cells), heparinised
T1 sequence (P09917 1-674): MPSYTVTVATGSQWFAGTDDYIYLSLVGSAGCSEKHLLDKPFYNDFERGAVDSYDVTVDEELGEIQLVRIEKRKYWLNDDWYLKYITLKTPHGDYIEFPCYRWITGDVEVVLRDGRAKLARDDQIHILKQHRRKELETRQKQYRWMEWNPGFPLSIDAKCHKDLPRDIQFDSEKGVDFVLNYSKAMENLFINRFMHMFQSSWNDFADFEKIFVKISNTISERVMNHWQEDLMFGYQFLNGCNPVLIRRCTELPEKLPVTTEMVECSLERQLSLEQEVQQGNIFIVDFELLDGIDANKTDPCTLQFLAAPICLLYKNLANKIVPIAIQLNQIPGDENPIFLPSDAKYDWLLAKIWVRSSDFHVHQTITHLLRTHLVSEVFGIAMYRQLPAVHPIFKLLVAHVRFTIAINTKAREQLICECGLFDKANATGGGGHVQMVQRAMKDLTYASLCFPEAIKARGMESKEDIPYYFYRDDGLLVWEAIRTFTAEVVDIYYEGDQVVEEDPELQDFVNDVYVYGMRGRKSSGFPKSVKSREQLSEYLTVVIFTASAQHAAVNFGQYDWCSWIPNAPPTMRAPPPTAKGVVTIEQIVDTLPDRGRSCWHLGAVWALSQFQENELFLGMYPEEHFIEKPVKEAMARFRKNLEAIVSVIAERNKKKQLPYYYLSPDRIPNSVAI
Text: As stated previously, the compounds of the formula I are inhibitors of the enzyme 5-LO. […] J. Pharmacol., 1985, 84, 34P) which involve the use of a protein-LTB₄ conjugate produced using the procedure of Young et alia (Prostaglandins, 1983, 26(4), 605-613). The effects of a test compound on the enzyme cyclooxygenase (which is involved in the alternative metabolic pathway for arachidonic acid and gives rise to prostaglandins, thromboxanes and related metabolites) may be measured at the same time using the specific radioimmunoassay for thromboxane B₂(TxB₂) described by Carey and Forder (see above). This test provides an indication of the effects of a test compound against 5-LO and also cyclooxygenase in the presence of blood cells and proteins. It permits the selectivity of the inhibitory effect on 5-LO or cyclooxygenase to be assessed. • b) An ex vivo assay system, which is a variation of test a) above, involving administration to a group of rats of a test compound (usually orally as the suspension produced when a solution of the test compound in dimethylsulphoxide is added to carboxymethylcellulose), blood collection, heparinisation, challenge with A23187 and radioimmunoassay of LTB₄ and TxB₂. This test provides an indication of the bioavailability of a test compound as an inhibitor of 5-LO or cyclooxygenase. • c) An in vivo system involving measuring the effects of a test compound administered orally against the liberation of LTB₄ induced by zymosan within an air pouch generated within the subcutaneous tissue of the back of male rats. The rats are anaesthetised and air pouches are formed by the injection of sterile air (20 ml). A further injection of air (10 ml) is similarly given after 3 days. At 6 days after the initial air injection the test compound is administered (usually orally as the suspension produced when a solution of the test compound in dimethylsulphoxide is added to hydroxypropylmethylcellulose), followed by the intrapouch injection of zymosan (lml of a 1% suspension in physiological saline). […]

5-LO [2] = experiment: Test c): in vivo zymosan-induced LTB₄ liberation in a subcutaneous air pouch; set-up: species or system male rats; settings: rats killed after 3 hours
Text: As stated previously, the compounds of the formula I are inhibitors of the enzyme 5-LO. […] J. Pharmacol., 1985, 84, 34P) which involve the use of a protein-LTB₄ conjugate produced using the procedure of Young et alia (Prostaglandins, 1983, 26(4), 605-613). The effects of a test compound on the enzyme cyclooxygenase (which is involved in the alternative metabolic pathway for arachidonic acid and gives rise to prostaglandins, thromboxanes and related metabolites) may be measured at the same time using the specific radioimmunoassay for thromboxane B₂(TxB₂) described by Carey and Forder (see above). This test provides an indication of the effects of a test compound against 5-LO and also cyclooxygenase in the presence of blood cells and proteins. It permits the selectivity of the inhibitory effect on 5-LO or cyclooxygenase to be assessed. • b) An ex vivo assay system, which is a variation of test a) above, involving administration to a group of rats of a test compound (usually orally as the suspension produced when a solution of the test compound in dimethylsulphoxide is added to carboxymethylcellulose), blood collection, heparinisation, challenge with A23187 and radioimmunoassay of LTB₄ and TxB₂. […]

IC50 (5-LO [1]) [nM] | SMILES | oral ED₅₀ versus LTB₄ in test c) (5-LO [2])
190 | COC1(c2cc(F)cc(Sc3ccc(C(C)ONC(C)=O)cc3)c2)CCOCC1 (stereo not drawn) [Example 2, 4-[5-fluoro-3-(4-methoxytetrahydropyran-4-yl)phenylthio]-α-methylbenzyl acetohydroxamate] | 
310 | COC1(c2cc(F)cc(Sc3ccc(C(C)ONC(N)=O)cc3)c2)CCOCC1 (stereo not drawn) [Example 4, N-{4-[5-fluoro-3-(4-methoxytetrahydropyran-4-yl)phenylthio]-α-methylbenzyloxy}urea] | 

SMILES | IC50 (5-LO [1]) [nM] | oral ED₅₀ versus LTB₄ in test c) (5-LO [2])
CCN(CC)OC(C)c1ccc(Sc2cc(F)cc(C3(OC)CCOCC3)c2)cc1 (stereo not drawn) [Example 5, N,N-diethyl-O-{4-[5-fluoro-3-(4-methoxytetrahydropyran-4-yl)phenylthio]-α-methylbenzyl}hydroxylamine] | 150 | approximately 1.5 mg/kg

Source: patent publication EP0570197A1, “Hydroxylamine derivatives” (ZENECA LIMITED, priority 1992, dated 1993)
